The text below walks through data of patent publication US7968521B2, “Stable cystal of protected pseudouridine” (Yamasa Corporation, priority 2005, dated 2011).

Data set [1] is described as follows: Stability (1): storage in a sealed vessel at 60° C. and a relative humidity of 30%, percent remaining by HPLC. In kind it is physicochemical. The note with it: relative humidity 30%; for Percent remaining (%) Day 3 / Percent remaining (%) Day 14 / Percent remaining (%) Day 23: sealed vessel; for Percent remaining (%) Day 3: Day 3, HPLC; for Percent remaining (%) Day 14: Day 14, HPLC; for Percent remaining (%) Day 23: Day 23, HPLC. How it is done: The crystalline 5′-O-(4,4′-dimethoxytrityl)pseudouridine produced in Example 1 was maintained in a sealed vessel at 60° C. and a relative humidity of 30%. Thereafter, the percent remaining of the compound was determined through HPLC, and the value was compared with that of the same compound in amorphous form, which had been separately prepared, so as to evaluate stability.

A short description of data set [2]: Stability (2): storage in a desiccator at 25±2° C. and a relative humidity of 33%, 57% or 75%, percent remaining by HPLC. It counts as physicochemical. The note with it: fourteen days; for Percent remaining (%) RH 33% / Percent remaining (%) RH 57% / Percent remaining (%) RH 75%: desiccator, HPLC. How it is done: The crystalline 5′-O-(4,4′-dimethoxytrityl)pseudouridine produced in Example 1 was maintained in a desiccator at 25±2° C. and a relative humidity of 33%, 57%, or 75%. Fourteen days after, the percent remaining of the compound was determined through HPLC, and the value was compared with that of the same compound in amorphous form, which had been separately prepared, so as to evaluate stability. […] At a relative humidity of 75%, the stability clearly varied between the two samples.

On to `COc1ccc(C(OC[C@H]2O[C@@H](c3c[nH]c(=O)[nH]c3=O)[C@H](O)[C@@H]2O)(c2ccccc2)c2ccc(OC)cc2)cc1` [Amorphous, 5′-O-(4,4′-dimethoxytrityl)pseudouridine, reference compound], for which, in data set [1], the “Percent remaining (%) Day 3” value turned out to be 97.8%, the “Percent remaining (%) Day 14” value was 88.6% and the “Percent remaining (%) Day 23” value is reported as 62.1%. Besides, in data set [2], the “Percent remaining (%) RH 33%” value came out at 98.0%, the “Percent remaining (%) RH 57%” value is on record as 96.7% and the “Percent remaining (%) RH 75%” value was 0.1%.

For `COc1ccc(C(OC[C@H]2O[C@@H](c3c[nH]c(=O)[nH]c3=O)[C@H](O)[C@@H]2O)(c2ccccc2)c2ccc(OC)cc2)cc1` [Crystalline, 5′-O-(4,4′-dimethoxytrityl)pseudouridine], in data set [1], the “thermal stability compared with the compound of amorphous form” value was “higher thermal stability”, the “Percent remaining (%) Day 3” value turned out to be 99.0%, the “Percent remaining (%) Day 14” value is 97.6% and the “Percent remaining (%) Day 23” value came to 95.7%. For the same molecule, in data set [2], the “Percent remaining (%) RH 33%” value is given as 98.7%, the “Percent remaining (%) RH 57%” value stood at 98.5% and the “Percent remaining (%) RH 75%” value is reported as 60.7%. Also, the “stability against moisture compared with the amorphous form” value in data set [2] (relative humidity 33%, 57% or 75%) is “more stable against moisture”.
